How the values were obtained:
[1] = Stability analysis: mobility of initiator compound from cured print into analog solutions, by HPLC; format: physicochemical; conditions: 40° C. for 10 days, calculated for 1 kg of food per 600 cm^2 printing area
Protocol: The cardboard is cut to a size of 10×10 cm, is completely immersed in two analog solutions, i. e., 100 ml distilled water and 3% acetic acid aqueous solution, sealing is performed well, and placement is performed at 40° C. for 10 days. The printed matter is taken out, and after standing, the contents of the initiator compounds in the analog solutions are directly analyzed by means of HPLC.

[2] = Solubility of solid photoinitiator in liquid polymerized monomer (HDDA or TPGDA); conditions: dissolved at 50-60° C., stored at room temperature

Row | Structure (SMILES) | Mobility ([1]; 3% acetic acid) | Mobility ([1]; Water) | Solubility ([2]; Polymerized monomer 1: HDDA) | Solubility ([2]; Polymerized monomer 2: TPGDA)
1 | CC(C)(C(=O)c1ccc(-c2ccccc2)cc1)N1CCOCC1 [2-methyl-1-(4-biphenyl)-2-morpholinyl-1-acetone] | 98 µg/kg | 80 µg/kg | 20 % (mass fraction) | 15 % (mass fraction)
2 | CCCCC1(CCCC)c2ccccc2-c2ccc(C(=O)C(C)(C)N3CCOCC3)cc21 [2-methyl-1-(2-(9,9-dibutylfluorenyl))-2-(N-morpholinyl)-1-acetone] | 60 µg/kg | 50 µg/kg |  | 

Reference: patent publication US11560362B2, “Dibutylfluorene derivative and application thereof as photoinitiator” (HUI ZHOU HUAHONG NEW MATERIAL CO., LTD., priority 2017, dated 2023)
